{"source": "patent US20100229250A1", "about": "“TREATMENT AND PREVENTION OF ISCHEMIC BRAIN INJURY” (THE JOHNS HOPKINS UNIVERSITY, priority 2007, published 2010)", "key": {"FP receptor [1]": {"test_system": "FP receptor", "assay": "Neurological deficit score after transient ischemia (90-min MCAO), post-treatment with FP agonist", "format": "in vivo, mouse", "details": "FP−/− mice, 100 μg/kg orally 30 min after reperfusion, scored at 96 h, mean±S.E.M., p<0.05 vs latanoprost-treated WT", "protocol": "(§1) Transient ischemia protocol. WT (n=11) and FP^−/− (n=12) mice were subjected to MCAO for 90 min followed by 96 h of reperfusion (Ahmad et al., 2006a). Mice were placed under halothane anesthesia (3.0% for induction, 1.0% for maintenance) and ventilated with oxygen-enriched air via a nose cone. Body temperatures were maintained at 37.0±0.5° C. by a heating pad. The mice were subjected to the intraluminal filament technique to produce the MCAO model of transient focal cerebral ischemia as we have described previously (Ahmad et al., 2006a). Relative cerebral blood flow (CBF) was measured by laser-Doppler flowmetry (Moor instruments, Devon, England) with a flexible probe affixed to the skull over the parietal cortex supplied by the MCA (2 mm posterior and 6 mm lateral to bregma). […] During occlusion, mice were kept in a humidity-controlled, 32° C. chamber to help maintain a body core temperature of 37° C. After 90 min of occlusion, mice were briefly re-anesthetized, the midline was reopened, and the filament was removed to establish reperfusion. After the incision was sutured, mice were again placed in the humidity- and temperature-controlled chamber for another 6 h and finally returned to their respective cages for survival up to 96 h.\n(§2) Assessment of neurological deficit score. Neurological function was measured in each mouse at 96 h after reperfusion according to the following graded scoring system, as described previously (Li et al., 2004): 0=no deficit; 1=forelimb weakness and torso turning to the ipsilateral side when held by tail; 2=circling to affected side; 3=unable to bear weight on affected side; and 4=no spontaneous locomotor activity or barrel rolling.\n(§3) Post-treatment of mice with the FP agonist latanoprost. […] At 96 h after MCAO, neurological deficit scores and brain injury were measured. […]"}, "FP receptor [2]": {"molecular_target": "T1, FP receptor (Mus musculus, UniProt P43117)", "T1 construct": "WT mice were post-treated orally with 10 μg/kg (n=10) or 100 μg/kg (n=8) latanoprost 30 min after reperfusion; endogenous in cells; host or cells: wild-type mice, whole animal (in vivo); FP-/- mice used as receptor-null control", "T1 sequence (P43117 whole entry, the tested form may be a part)": "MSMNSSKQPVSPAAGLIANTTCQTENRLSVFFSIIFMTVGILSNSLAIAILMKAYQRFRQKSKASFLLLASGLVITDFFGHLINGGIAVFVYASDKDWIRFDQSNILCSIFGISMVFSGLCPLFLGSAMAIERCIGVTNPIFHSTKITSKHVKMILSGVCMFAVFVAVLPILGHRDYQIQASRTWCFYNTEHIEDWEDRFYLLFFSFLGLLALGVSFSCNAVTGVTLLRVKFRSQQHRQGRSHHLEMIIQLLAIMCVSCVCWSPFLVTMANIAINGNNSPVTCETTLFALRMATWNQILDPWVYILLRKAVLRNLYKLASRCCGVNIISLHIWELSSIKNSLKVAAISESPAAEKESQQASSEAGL", "assay": "Neurological deficit score after transient ischemia (90-min MCAO), post-treatment with FP agonist", "format": "in vivo", "details": "WT mice", "protocol": "as §1, §2, §3"}, "FP receptor [3]": {"molecular_target": "T1, FP receptor", "assay": "Brain infarction (TTC staining) after transient ischemia (90-min MCAO), post-treatment with FP agonist", "format": "in vivo", "details": "WT mice, TTC at 96 h", "protocol": "as §1, with “After 90 min of occlusion, mice were briefly re-anesthetized, the midline was reopened, and the filament was removed to establish reperfusion. After the incision was sutured, mice were again placed in the humidity- and temperature-controlled chamber for another 6 h and finally returned to their respective cages for survival up to 96 h.” left out\nas §3\nAssessment of brain infarction. […] Infarct volume was assessed by 2,3,5-triphenyltetrazolium chloride (TTC) staining by an observer blinded to the treatments, as described previously (Ahmad et al., 2006a). […] The corrected volume of the infarcted hemisphere was calculated as: volume of contralateral hemisphere−(volume of ipsilateral hemisphere−volume of infarct)."}}, "note": "Entries after “also recorded” stand apart in the source; their conditions may differ.", "data": [{"compound": "CC(C)OC(=O)CCC/C=C\\C[C@@H]1[C@@H](CC[C@@H](O)CCc2ccccc2)[C@H](O)C[C@@H]1O", "note": "[latanoprost, 13,14-dihydro-17-phenyl-18,19,20-trinor-PGF2α isopropyl ester]", "values": [{"measurement": "neurological deficit score", "setting": "FP receptor [1]", "result": "1.4±0.2"}, {"measurement": "neurological deficit score", "setting": "FP receptor [2]; 10 μg/kg orally 30 min after reperfusion, scored at 96 h (scale 0-4), mean±S.E.M., vehicle 1.8±0.2, not significant", "result": "2.2±0.2"}, {"measurement": "neurological deficit score", "setting": "FP receptor [2]; 100 μg/kg orally 30 min after reperfusion, scored at 96 h, p<0.05 vs vehicle", "result": "significantly increased the neurological deficit"}, {"measurement": "brain damage (corrected infarct volume)", "setting": "FP receptor [3]; 10 μg/kg orally 30 min after reperfusion, vs vehicle", "result": "trend toward increased brain damage"}, {"measurement": "brain damage (corrected infarct volume)", "setting": "FP receptor [3]; 100 μg/kg orally 30 min after reperfusion, p<0.05 vs vehicle", "result": "significantly larger infarct volumes; also recorded: became significant"}]}]}
